One assay has as its target T1, c-Src kinase (Homo sapiens, UniProt P12931).
T1 construct: purchased Millipore (KinaseProfiler Service)
The assay can be described thus: KinaseProfiler kinase inhibition assay, c-Src. Format: biochemical. As to conditions: 1 μM compound; read-out: % Inhibition @1 μM cSrc.

Another assay deals with KG1a. The assay can be described thus: CellTiterblue viability, 72 hr, KG1a. Format: cell-based. As to conditions: Homo sapiens, KG-1a, KG1a cells. The protocol:
(§1) A number of studies were performed to analyze the consequences of tyrosine kinase inhibition in cell lines. To do this, 1000 cells are seeded in 27 μl/well in 384-well microplates, which are then placed in a humidified CO2 incubator at 37° C. overnight. The next day, 3 μl/well of 10× concentrated drug is added and the plates are returned to the incubator for 72 hr. After 72 hr incubation, plates are removed and […] CellTiterblue (Promega) viability reagent is added. Plates are returned to the incubator for 3 hr, after which it is fluorescence measurements are read on the Victor X3 plate reader (Perkin Elmer). Data are analyzed using Excel (Microsoft), and GI50 values are determined using Prism (Graphpad).

The next assay concerns the target T2, Alk kinase (Homo sapiens, UniProt Q9UM73).
T2 construct: purchased Millipore (KinaseProfiler Service)
The assay can be described thus: KinaseProfiler kinase inhibition assay, Alk. Format: biochemical. Conditions: 1 μM compound.

For the next assay, the system named is Kato III. In words: CellTiterblue viability, 72 hr, Kato III. As to conditions: Homo sapiens, Kato III cells. The assay is classed as cell-based. The protocol: as §1
A further assay relates to RT112. The assay can be described thus: CellTiterblue viability, 72 hr, RT112. The assay is classed as cell-based. As to conditions: Homo sapiens, RT-112, RT112 cells. The protocol: as §1
In a further assay the target is T3, FGFR1 kinase (Homo sapiens, UniProt P11362).
T3 construct: purchased Millipore (KinaseProfiler Service)
The assay can be described thus: KinaseProfiler kinase inhibition assay, FGFR1. Conditions: 1 μM compound. Format: biochemical.

Another assay has as its target T4, Abl kinase (Homo sapiens, UniProt P00519).
T4 construct: purchased Millipore (KinaseProfiler Service)
The assay can be described thus: KinaseProfiler kinase inhibition assay, Abl. Format: biochemical. As to conditions: 1 μM compound.

For the next assay, the system named is AN3_CA. The assay can be described thus: CellTiterblue viability, 72 hr, AN3_CA. The assay is classed as cell-based. Conditions: Homo sapiens, AN3-CA, AN3_CA cells. The protocol:
as §1

The next assay addresses T5, Tie2 (Homo sapiens, UniProt Q02763).
T5 construct: purchased Millipore (KinaseProfiler Service)
In words: KinaseProfiler kinase inhibition assay, Tie2. The assay is classed as biochemical. As to conditions: 1 μM compound.

For the next assay, the target named is T6, Ret kinase (Homo sapiens, UniProt P07949).
T6 construct: purchased Millipore (KinaseProfiler Service)
The assay can be described thus: KinaseProfiler kinase inhibition assay, Ret. Conditions: 1 μM compound. Format: biochemical.

A further assay deals with T7, KDR kinase (Homo sapiens, UniProt P35968).
T7 construct: purchased Millipore (KinaseProfiler Service)
In words: KinaseProfiler kinase inhibition assay, KDR. The assay is classed as biochemical. As to conditions: 1 μM compound.

For a further assay, the system named is MDA-MB134. In words: CellTiterblue viability, 72 hr, MDA-MB134. Format: cell-based. Conditions: MDA-MB134 cells. The protocol: as §1

T1 sequence (P12931 whole entry): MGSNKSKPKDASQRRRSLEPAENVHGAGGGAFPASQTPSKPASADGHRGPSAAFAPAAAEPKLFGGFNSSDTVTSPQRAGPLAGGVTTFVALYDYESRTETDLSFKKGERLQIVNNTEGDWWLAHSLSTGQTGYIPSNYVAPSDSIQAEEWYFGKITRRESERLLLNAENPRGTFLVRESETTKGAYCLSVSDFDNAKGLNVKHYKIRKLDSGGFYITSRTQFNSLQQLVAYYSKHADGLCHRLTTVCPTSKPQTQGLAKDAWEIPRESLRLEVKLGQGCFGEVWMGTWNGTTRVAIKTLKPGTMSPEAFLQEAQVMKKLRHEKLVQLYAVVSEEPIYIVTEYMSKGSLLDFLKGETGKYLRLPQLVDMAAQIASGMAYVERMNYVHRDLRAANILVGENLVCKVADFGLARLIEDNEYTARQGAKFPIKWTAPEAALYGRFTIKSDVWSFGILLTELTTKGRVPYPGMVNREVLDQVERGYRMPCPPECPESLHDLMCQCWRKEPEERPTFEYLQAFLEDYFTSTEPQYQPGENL
T6 sequence (P07949 29-1114): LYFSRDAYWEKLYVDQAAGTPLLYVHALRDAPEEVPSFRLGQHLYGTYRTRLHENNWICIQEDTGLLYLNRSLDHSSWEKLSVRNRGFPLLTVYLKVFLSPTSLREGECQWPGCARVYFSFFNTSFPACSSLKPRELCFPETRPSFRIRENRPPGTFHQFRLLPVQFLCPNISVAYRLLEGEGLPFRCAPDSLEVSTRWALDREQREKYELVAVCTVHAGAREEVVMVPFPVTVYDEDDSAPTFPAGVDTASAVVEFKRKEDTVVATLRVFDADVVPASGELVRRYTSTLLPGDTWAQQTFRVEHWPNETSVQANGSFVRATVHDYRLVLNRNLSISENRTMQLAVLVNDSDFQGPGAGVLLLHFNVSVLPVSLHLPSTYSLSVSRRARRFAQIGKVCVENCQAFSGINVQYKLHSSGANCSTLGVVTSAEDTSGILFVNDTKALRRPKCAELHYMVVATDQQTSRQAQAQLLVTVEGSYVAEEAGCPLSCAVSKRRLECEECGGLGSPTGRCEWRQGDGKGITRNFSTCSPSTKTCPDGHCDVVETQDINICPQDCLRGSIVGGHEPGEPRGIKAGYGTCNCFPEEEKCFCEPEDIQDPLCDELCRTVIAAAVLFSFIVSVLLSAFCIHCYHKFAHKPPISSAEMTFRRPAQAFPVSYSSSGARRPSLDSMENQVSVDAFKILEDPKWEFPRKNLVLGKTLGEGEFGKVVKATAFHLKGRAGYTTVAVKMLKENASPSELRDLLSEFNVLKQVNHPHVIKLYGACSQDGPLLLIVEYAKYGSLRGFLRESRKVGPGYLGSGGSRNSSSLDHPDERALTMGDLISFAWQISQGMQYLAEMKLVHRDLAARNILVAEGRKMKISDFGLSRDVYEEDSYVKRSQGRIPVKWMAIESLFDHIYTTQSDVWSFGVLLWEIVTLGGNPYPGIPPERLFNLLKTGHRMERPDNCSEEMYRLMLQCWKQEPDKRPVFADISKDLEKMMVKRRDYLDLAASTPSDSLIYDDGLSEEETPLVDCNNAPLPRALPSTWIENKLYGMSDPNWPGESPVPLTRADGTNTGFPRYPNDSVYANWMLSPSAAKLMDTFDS
T7 sequence (P35968 20-1356): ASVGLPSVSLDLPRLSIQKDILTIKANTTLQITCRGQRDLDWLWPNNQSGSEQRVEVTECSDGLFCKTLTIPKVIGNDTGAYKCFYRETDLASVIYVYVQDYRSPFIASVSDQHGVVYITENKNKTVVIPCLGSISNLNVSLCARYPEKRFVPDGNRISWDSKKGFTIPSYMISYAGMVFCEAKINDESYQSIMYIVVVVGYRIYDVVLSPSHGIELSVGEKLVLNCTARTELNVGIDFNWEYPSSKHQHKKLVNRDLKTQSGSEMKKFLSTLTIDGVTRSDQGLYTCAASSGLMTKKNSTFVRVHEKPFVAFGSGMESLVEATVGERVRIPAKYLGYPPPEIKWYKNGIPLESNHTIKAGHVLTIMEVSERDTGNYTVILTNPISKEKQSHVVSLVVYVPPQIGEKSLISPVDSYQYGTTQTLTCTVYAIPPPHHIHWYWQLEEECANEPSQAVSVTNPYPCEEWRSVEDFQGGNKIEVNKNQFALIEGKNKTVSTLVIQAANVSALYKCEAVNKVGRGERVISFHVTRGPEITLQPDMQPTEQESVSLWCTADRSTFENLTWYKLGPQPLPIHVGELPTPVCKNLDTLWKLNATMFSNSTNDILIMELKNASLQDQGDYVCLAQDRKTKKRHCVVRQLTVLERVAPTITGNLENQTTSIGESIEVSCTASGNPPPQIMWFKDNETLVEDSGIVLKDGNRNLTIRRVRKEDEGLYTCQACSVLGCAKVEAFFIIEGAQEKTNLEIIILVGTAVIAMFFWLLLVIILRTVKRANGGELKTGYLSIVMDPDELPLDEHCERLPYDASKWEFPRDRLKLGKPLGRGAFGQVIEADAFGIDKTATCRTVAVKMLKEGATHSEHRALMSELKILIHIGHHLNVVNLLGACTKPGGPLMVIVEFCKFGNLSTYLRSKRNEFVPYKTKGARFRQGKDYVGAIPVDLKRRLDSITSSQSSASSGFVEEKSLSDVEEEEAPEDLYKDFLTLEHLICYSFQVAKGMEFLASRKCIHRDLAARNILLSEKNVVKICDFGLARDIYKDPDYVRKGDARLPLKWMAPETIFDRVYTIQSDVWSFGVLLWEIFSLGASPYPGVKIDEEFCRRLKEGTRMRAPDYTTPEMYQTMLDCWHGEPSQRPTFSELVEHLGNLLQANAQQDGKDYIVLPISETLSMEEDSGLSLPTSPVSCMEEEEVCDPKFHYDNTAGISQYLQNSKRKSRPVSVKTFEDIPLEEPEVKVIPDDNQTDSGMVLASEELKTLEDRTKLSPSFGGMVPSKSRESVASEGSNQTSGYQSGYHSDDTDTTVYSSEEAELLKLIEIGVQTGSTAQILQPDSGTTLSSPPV
T4 sequence (P00519 whole entry): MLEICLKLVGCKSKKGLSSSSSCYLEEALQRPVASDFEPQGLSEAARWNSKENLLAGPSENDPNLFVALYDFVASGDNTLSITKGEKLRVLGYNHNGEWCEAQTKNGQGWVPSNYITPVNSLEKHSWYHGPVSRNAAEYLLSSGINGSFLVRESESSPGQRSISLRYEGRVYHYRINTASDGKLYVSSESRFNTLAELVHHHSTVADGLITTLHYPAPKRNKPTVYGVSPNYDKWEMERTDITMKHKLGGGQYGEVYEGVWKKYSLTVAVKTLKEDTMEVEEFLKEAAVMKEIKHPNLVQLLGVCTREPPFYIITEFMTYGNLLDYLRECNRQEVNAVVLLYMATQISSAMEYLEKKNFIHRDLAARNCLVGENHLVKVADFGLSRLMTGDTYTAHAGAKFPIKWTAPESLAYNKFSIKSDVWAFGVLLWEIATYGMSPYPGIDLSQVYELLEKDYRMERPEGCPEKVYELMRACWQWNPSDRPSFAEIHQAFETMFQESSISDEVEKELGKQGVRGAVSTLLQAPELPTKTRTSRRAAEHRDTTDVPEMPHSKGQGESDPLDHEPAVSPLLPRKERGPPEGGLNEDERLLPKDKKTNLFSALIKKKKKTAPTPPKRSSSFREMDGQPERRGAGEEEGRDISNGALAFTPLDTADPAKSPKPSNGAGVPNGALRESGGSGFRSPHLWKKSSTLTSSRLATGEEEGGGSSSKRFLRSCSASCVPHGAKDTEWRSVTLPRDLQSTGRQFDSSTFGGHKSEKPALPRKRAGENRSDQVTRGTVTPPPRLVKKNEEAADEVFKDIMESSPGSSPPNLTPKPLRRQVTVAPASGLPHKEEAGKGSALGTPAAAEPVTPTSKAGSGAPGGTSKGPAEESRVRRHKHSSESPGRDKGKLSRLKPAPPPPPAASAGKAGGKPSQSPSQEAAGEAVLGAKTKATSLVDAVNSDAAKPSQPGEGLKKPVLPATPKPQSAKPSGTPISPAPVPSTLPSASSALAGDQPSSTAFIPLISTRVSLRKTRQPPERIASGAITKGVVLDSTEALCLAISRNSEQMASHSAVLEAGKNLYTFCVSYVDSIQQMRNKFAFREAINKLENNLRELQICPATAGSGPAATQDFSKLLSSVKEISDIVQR
T3 sequence (P11362 22-822): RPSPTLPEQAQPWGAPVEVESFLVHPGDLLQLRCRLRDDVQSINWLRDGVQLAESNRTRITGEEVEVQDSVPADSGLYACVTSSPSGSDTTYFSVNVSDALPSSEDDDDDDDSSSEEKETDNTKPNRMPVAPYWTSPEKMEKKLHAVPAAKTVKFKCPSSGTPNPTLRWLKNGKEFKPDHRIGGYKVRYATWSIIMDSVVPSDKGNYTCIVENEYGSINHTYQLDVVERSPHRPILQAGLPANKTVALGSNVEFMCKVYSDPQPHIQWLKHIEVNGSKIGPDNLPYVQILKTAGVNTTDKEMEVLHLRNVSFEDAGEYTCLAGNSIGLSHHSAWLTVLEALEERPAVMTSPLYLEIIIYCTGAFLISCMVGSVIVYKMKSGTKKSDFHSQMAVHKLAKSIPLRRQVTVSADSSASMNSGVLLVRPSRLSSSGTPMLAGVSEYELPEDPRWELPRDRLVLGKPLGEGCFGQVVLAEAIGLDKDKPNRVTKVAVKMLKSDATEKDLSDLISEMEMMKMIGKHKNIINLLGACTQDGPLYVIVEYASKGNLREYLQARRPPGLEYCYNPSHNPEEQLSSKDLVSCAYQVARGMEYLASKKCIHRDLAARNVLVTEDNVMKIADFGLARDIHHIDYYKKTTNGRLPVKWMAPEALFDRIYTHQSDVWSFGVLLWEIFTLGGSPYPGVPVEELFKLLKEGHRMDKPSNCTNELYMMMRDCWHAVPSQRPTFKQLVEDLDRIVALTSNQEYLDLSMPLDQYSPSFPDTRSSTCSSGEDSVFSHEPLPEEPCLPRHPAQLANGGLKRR

In the case of `Cc1cc2c(F)c(Oc3ncnc(Nc4ccc(N5CCN(C)CC5)cc4)c3N)ccc2[nH]1` [Compound 46], the inhibition at 1 µM at c-Src kinase was 12%; on Alk kinase, -34%; at FGFR1 kinase it was 54%; against Abl kinase, -13%; against Tie2, 14%; against Ret kinase it was -43%. For the same compound, on KDR kinase, the inhibition at 1 µM was determined as 5%. Moreover, the 50% growth inhibitory concentration (GI50) is more than 500 nM in the assay on KG1a; more than 500 nM with Kato III; more than 500 nM in the assay with RT112; more than 500 nM with AN3_CA; 254 nM in the assay on MDA-MB134.

With `Cc1cc2c(F)c(Oc3ncnc(Nc4ccc(N5CCN(C)CC5)cc4)c3C)ccc2[nH]1` [Compound 40], the inhibition at 1 µM at c-Src kinase was -2%; against Alk kinase, -23%; at FGFR1 kinase it was 91%; against Abl kinase, 2%; at Tie2, 13%; at Ret kinase it was -46%. Further, at KDR kinase, the inhibition at 1 µM stood at 12%. The GI50 with KG1a was more than 500 nM; in the assay on Kato III it was more than 500 nM; in the assay with RT112 it was more than 500 nM; with AN3_CA, more than 500 nM; in the assay with MDA-MB134, 430 nM.

Consider `COc1c(Nc2ccc(N3CCN(C)CC3)cn2)ncnc1Oc1ccc2[nH]c(C)cc2c1F` [Compound 44], for which the inhibition at 1 µM at c-Src kinase is -11%; against Alk kinase it was -18%; at FGFR1 kinase it was 16%; against Abl kinase it was -6%; against Tie2 it was 11%; at Ret kinase, -12%. At KDR kinase, the inhibition at 1 µM was -1%. Further, the GI50 with KG1a, with Kato III, in the assay on RT112, in the assay with AN3_CA and in the assay on MDA-MB134 was more than 500 nM in each case.

Turning to `Cc1cc2c(F)c(Oc3ncnc(Nc4ccc(N5CCNCC5)cc4)c3C#N)ccc2[nH]1` [Compound 57], the inhibition at 1 µM on c-Src kinase was 12%; against Alk kinase, -40%; at FGFR1 kinase, 99%; against Abl kinase it was -6%; against Tie2 it was 30%; against Ret kinase it was -26%. The inhibition at 1 µM on KDR kinase is 94%. For the same compound, the 50% growth inhibitory concentration (GI50) is 4 nM with KG1a; 51 nM in the assay with Kato III; 33 nM with RT112; more than 500 nM in the assay with AN3_CA; 8 nM in the assay on MDA-MB134.

In the case of `CCN1CCN(c2ccc(Nc3ncnc(Oc4ccc5[nH]c(C)cc5c4F)c3C#N)nc2)CC1` [Compound 55], the inhibition at 1 µM at c-Src kinase was 10%; against Alk kinase, -23%; on FGFR1 kinase, 99%; against Abl kinase it was 2%; against Tie2 it was 31%; at Ret kinase, -48%. Moreover, on KDR kinase, the inhibition at 1 µM was 91%. The GI50 in the assay on KG1a is 7 nM; in the assay on Kato III, 319 nM; in the assay on RT112, more than 500 nM; with AN3_CA, 98 nM; in the assay on MDA-MB134, 78 nM.

Take `CCN1CCN(c2ccc(Nc3ncnc(Oc4ccc5c(cc(C)n5C)c4F)c3F)cc2)CC1` [Compound 63]: the inhibition at 1 µM on c-Src kinase is 1%; at Alk kinase, -3%; on FGFR1 kinase, 91%; against Abl kinase it was 3%; against Tie2, 13%; against Ret kinase, -41%. For the same compound, the inhibition at 1 µM against KDR kinase is 10%. In addition, the GI50 in the assay on KG1a is more than 500 nM; in the assay on Kato III, more than 500 nM; in the assay on RT112 it was more than 500 nM; in the assay on AN3_CA, more than 500 nM; with MDA-MB134 it was 282 nM.

As for `CCN1CCN(c2ccc(Nc3ncnc(Oc4cc(F)c5[nH]c(C)cc5c4F)c3C#N)nc2)CC1` [Compound 61], the inhibition at 1 µM on c-Src kinase was -9%; against Alk kinase it was -41%; on FGFR1 kinase, 100%; against Abl kinase, 3%; against Tie2 it was 23%; on Ret kinase, -13%. In addition, the inhibition at 1 µM at KDR kinase is 51%. In addition, the GI50 is 4 nM with KG1a; 77 nM in the assay on Kato III; 11 nM in the assay on RT112; more than 500 nM with AN3_CA; 28 nM in the assay on MDA-MB134.

Take `Cc1cc2c(F)c(Oc3ncnc(Nc4ccc(N5CCN(C)CC5)cc4)c3Cl)ccc2[nH]1` [Compound 35, 5-chloro-6-((4-fluoro-2-methyl-1H-indol-5-yl)oxy)-N-(4-(4-methylpiperazin-1-yl)phenyl)pyrimidin-4-amine]: the inhibition at 1 µM at c-Src kinase was 2%; on Alk kinase it was -43%; against FGFR1 kinase, 96%; at Abl kinase, -15%; against Tie2 it was 19%; at Ret kinase it was -22%. At KDR kinase, the inhibition at 1 µM is 20%. For the same compound, the GI50 in the assay with KG1a, in the assay with Kato III, in the assay on RT112, with AN3_CA and with MDA-MB134 was more than 500 nM in each case.

As to `CCN1CCN(c2ccc(Nc3ncnc(Oc4cc(F)c5[nH]c(C)cc5c4F)c3C#N)cc2)CC1` [Compound 60], the inhibition at 1 µM on c-Src kinase is 3%; at Alk kinase it was 3%; against FGFR1 kinase it was 100%; against Abl kinase, -7%; at Tie2, 24%; on Ret kinase, -42%. Also, the inhibition at 1 µM against KDR kinase came out at 93%. The GI50 in the assay with KG1a was 5 nM; in the assay with Kato III it was 26 nM; in the assay with RT112, 47 nM; in the assay with AN3_CA it was more than 500 nM; in the assay with MDA-MB134 it was 18 nM.

Regarding `Cc1cc2c(F)c(Oc3ncnc(Nc4ccc(N5CCN(C)CC5)cn4)c3C)ccc2[nH]1` [Compound 41], the inhibition at 1 µM is 8% at c-Src kinase; -41% on Alk kinase; 41% at FGFR1 kinase; 2% at Abl kinase; 12% against Tie2; -35% against Ret kinase. On KDR kinase, the inhibition at 1 µM stood at 5%. The GI50 with KG1a is more than 500 nM; with Kato III, more than 500 nM; with RT112, more than 500 nM; in the assay on AN3_CA, more than 500 nM; with MDA-MB134, 241 nM.

On to `CCN1CCN(c2ccc(Nc3ncnc(Oc4ccc5[nH]c(C)cc5c4F)c3C(N)=O)cc2)CC1` [Compound 68], for which the inhibition at 1 µM at c-Src kinase was found to be 85%; on Alk kinase it was 46%; at FGFR1 kinase, 100%; at Abl kinase it was 67%; on Tie2 it was 94%; against Ret kinase, 97%. Further, the inhibition at 1 µM at KDR kinase came out at 96%. For the same compound, the GI50 in the assay with KG1a was found to be 32 nM; in the assay on Kato III it was 23 nM; with RT112, 11 nM; in the assay on AN3_CA, 79 nM; with MDA-MB134 it was 111 nM.

As for `Cc1cc2c(F)c(Oc3ncnc(Nc4ccc(N5CCN(C)CC5)cc4)c3C#N)ccc2[nH]1` [Compound 54], the inhibition at 1 µM on c-Src kinase was 8%; on Alk kinase, -30%; against FGFR1 kinase, 101%; at Abl kinase, 3%; at Tie2, 21%; against Ret kinase it was -30%. Moreover, the inhibition at 1 µM on KDR kinase is 97%. For the same compound, the 50% growth inhibitory concentration (GI50) came to 4 nM in the assay with KG1a; 12 nM in the assay on Kato III; 103 nM in the assay with RT112; 214 nM in the assay with AN3_CA; 20 nM with MDA-MB134.

The values above are taken from US10766879B2, “Pyrimidine derivatives as kinase inhibitors and their therapeutical applications” (NantBioScience, Inc., priority 2015, dated 2020).
